# Experiments:
# ALDH1A2 [1] = target: T1, ALDH1A2 (Homo sapiens, UniProt O94788); assay: Cell-based enzyme assay, retinoic acid production in ALDH1A2/H1299 cells; conditions: cell-based
# T1 sequence (O94788 1-518): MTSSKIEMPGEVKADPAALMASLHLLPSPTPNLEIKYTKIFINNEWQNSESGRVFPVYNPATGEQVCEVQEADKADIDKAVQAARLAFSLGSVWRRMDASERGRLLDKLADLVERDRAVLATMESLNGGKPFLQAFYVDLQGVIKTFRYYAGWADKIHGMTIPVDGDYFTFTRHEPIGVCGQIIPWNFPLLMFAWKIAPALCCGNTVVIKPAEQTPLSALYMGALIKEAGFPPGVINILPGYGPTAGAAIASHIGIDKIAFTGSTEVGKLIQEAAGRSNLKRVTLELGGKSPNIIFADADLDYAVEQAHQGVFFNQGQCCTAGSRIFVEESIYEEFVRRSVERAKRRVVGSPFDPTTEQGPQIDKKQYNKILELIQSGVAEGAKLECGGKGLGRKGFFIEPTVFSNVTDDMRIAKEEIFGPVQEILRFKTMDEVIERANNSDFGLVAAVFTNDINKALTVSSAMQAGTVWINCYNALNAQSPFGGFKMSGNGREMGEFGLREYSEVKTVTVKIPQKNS
# Description: (§1) ALDH1A1 cDNA clone was purchased transfection-ready, and ALDH1A2 full-length cDNA was subcloned into pcDNA3, a mammalian expression vector. ALDH1A1 and ALDH1A2 were transfected into H1299 cells (CRL5803, ATCC) using Lipofectamine 3000 (Invitrogen) following the manufacturer's instructions. Stably transfected cells were selected with G418 (1.2 mg/ml) and referred to as ALDH1A1/H1299 and ALDH1A2/H1299. For the cell-based enzyme assays,
# (§2) H1299 cells were routinely grown in RPMI-1640 (ATCC) supplemented with 10% fetal bovine serum (Atlanta Biologicals) in a 37 C, 5% CO2, moisture-saturated atmosphere. H1299, ALDH1A1/H1299 and ALDH1A2/H1299 cells were seeded into 12-well plates (1×10^5 cells/well) and grown for 2 days to confluence. Confluent cells were treated for 20 hours in the above media excluding serum with 2 μM all-trans-retinal, and varying concentrations of inhibitors. Serum-free media was used for the treatment period to avoid retinoic acid in serum. Retinoic acid concentrations were determined from cells and media, and specificity of inhibitors was determined by comparing retinoic acid levels in the presence and absence of the inhibitors in ALDH1A1- vs. ALDH1A2-expressing cells.
# ALDH1A1 = target: T2, ALDH1A1 (Homo sapiens, UniProt P00352); assay: Cell-based enzyme assay, retinoic acid production in ALDH1A1/H1299 cells; conditions: cell-based
# T2 sequence (P00352 1-501): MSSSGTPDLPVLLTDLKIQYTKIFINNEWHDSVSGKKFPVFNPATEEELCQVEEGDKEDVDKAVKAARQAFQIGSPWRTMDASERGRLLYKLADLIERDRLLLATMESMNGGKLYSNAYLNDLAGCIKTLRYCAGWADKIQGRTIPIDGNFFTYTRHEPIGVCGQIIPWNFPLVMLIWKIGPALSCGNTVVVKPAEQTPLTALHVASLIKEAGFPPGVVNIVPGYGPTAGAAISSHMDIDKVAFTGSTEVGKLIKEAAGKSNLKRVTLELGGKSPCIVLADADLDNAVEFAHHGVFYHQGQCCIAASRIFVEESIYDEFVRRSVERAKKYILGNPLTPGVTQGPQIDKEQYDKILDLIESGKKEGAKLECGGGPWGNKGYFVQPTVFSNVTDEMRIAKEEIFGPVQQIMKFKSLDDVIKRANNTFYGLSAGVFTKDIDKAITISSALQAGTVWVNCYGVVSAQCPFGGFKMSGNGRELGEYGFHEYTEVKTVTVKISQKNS
# Description: as §1, §2
# ALDH2 = target: T3, ALDH2 (Homo sapiens, UniProt P05091); assay: Purified ALDH2 assay with propanal, NADH fluorescence; type: biochemical; conditions: purified enzyme
# T3 construct: histidine-tag (N); made in house; host or cells: bacterial expression (pETite vector, IPTG induction)
# T3 sequence (P05091 18-517): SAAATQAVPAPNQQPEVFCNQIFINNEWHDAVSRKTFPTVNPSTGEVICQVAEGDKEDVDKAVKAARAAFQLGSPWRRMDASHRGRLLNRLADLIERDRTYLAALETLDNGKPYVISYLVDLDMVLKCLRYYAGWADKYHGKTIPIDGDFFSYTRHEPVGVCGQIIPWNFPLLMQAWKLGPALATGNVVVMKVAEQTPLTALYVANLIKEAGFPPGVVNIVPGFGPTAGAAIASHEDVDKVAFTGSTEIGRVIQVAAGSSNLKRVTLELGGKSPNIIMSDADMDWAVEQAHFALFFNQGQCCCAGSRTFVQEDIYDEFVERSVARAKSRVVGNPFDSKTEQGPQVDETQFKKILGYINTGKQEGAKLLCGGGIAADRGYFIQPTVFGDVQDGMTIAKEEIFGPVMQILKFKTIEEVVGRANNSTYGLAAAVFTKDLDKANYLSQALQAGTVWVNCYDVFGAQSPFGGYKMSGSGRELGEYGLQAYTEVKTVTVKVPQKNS
# Excerpt: ALDHs were cloned into bacterial expression vector for in vitro enzyme assays and into mammalian expression vectors for cell-based enzyme assays. Human ALDH1A1 cDNA and human ALDH2 cDNA were purchased from OriGene (SC321535) and Open Biosystems (MHS4771-99611182), respectively. and human ALDH1A2 cDNA was cloned from human testis RNA using RT-PCR (Population Division of the Department of Economic and Social Affairs of the United Nations Secretariat. World Population prospects: the 2008 revision. Available at http://www.un.org/esa/population/ (Retrieved Sep. 30, 2011)). For bacterial expression, an open reading frame of ALDH1A1 and ALDH2 were subcloned into the pETite vector (Lucigen) with a 5′ histidine-tag and that of ALDH1A2 into a pET28 vector (Novagen) with a 3′ histidine-tag. Correct frame and sequences were verified through DNA sequencing (UW DNA sequencing facility). ALDHs were induced with 1 mM IPTG and purified using His.Bind resin (Novagen, San Diego, Calif.) and stored in a buffer containing 20 mM Hepes (pH 8), 150 mM KCl and 1 mM EDTA as previously described (Fierce, Y., de Morais Vieira, M., Piantedosi, R., Wyss, A., Blaner, W. S., and Paik, J. (2008) In vitro and in vivo characterization of retinoid synthesis from beta-carotene. Archives of biochemistry and biophysics 472, 126-138). […]
# For this, 2 μg purified ALDH2, 20 μM propanal and varying concentrations of inhibitors were incubated at room temperature. Enzyme activity was determined by measuring fluorescence of NADH (Ex, 350 nm/Em, 460 nm) using a Victor3 plate reader (PerkinElmer), and initial velocity was calculated from two consecutive readings over 1 minute.
# ALDH1A2 [2] = target: T1, ALDH1A2; assay: Inhibitor screening using purified enzymes: ALDH1A2 activity, retinoic acid production by HPLC (5 uM initial screen, then IC50); type: biochemical; design: histidine-tag (C); made in house; host or cells: bacterial expression (pET28 vector, IPTG induction); conditions: purified enzyme
# Excerpt: ALDHs were cloned into bacterial expression vector for in vitro enzyme assays and into mammalian expression vectors for cell-based enzyme assays. Human ALDH1A1 cDNA and human ALDH2 cDNA were purchased from OriGene (SC321535) and Open Biosystems (MHS4771-99611182), respectively. and human ALDH1A2 cDNA was cloned from human testis RNA using RT-PCR (Population Division of the Department of Economic and Social Affairs of the United Nations Secretariat. World Population prospects: the 2008 revision. Available at http://www.un.org/esa/population/ (Retrieved Sep. 30, 2011)). For bacterial expression, an open reading frame of ALDH1A1 and ALDH2 were subcloned into the pETite vector (Lucigen) with a 5′ histidine-tag and that of ALDH1A2 into a pET28 vector (Novagen) with a 3′ histidine-tag. Correct frame and sequences were verified through DNA sequencing (UW DNA sequencing facility). ALDHs were induced with 1 mM IPTG and purified using His.Bind resin (Novagen, San Diego, Calif.) and stored in a buffer containing 20 mM Hepes (pH 8), 150 mM KCl and 1 mM EDTA as previously described (Fierce, Y., de Morais Vieira, M., Piantedosi, R., Wyss, A., Blaner, W. S., and Paik, J. (2008) In vitro and in vivo characterization of retinoid synthesis from beta-carotene. Archives of biochemistry and biophysics 472, 126-138).
# ALDH1A1 and ALDH1A2 activity was determined as previously reported (Beedle M T, Stevison F, Zhong G, Topping T, Hogarth C, Isoherranen N, Griswold M D. Sources of All-Trans Retinal Oxidation Independent of the Aldehyde Dehydrogenase 1A Isozymes Exist in the Postnatal Testis. Biol Reprod. 2018 Sep. 21. doi: 10.1093/biolre/ioy200). Briefly, purified enzymes were incubated in a buffer containing 10 mM HEPES buffer (pH 8.0), 150 mM potassium chloride and 2 mM EDTA with 2 mM NAD. Retinoic acid production was determined using HPLC as previously reported (Amory J K, Muller C H, Shimshoni A J, Isoherranen N, Paik J, Moreb J S, Amory D W, Evanoff R, Goldstein A S, Griswold M D. Suppression of spermatogenesis by bisdichloroacetyldiamines is mediated by inhibition of testicular retinoic acid biosynthesis. Journal of Andrology 2011; 32(1):111-119). Inhibitors were diluted in DMSO and added to the reactions. […] For initial screening of inhibitors for ALDH1A2, 1 μg ALDH1A2, 5 μM all-trans-retinal and 5 μM inhibitors were incubated for 15 min at 37° C. […] For this purpose, 0.5 μg ALDH1A2 and […] were incubated for 5 minutes at 37° C. with varying concentrations of inhibitors. To determine specificity toward ALDH1A2, the IC50 for […]
Compound,EC50 (ALDH1A2 [1]) [µM],EC50 (ALDH1A1) [µM],IC50 (ALDH2) [µM],IC50 (ALDH1A2 [2]) [µM]
"CS(=O)(=O)c1ccc(-c2nn(-c3ccc(C(N)=O)cc3)cc2C(=O)Nc2cccc(F)c2)cc1 [Compound 283, 1-(4-Carbomylphenyl)-3-[4-(methylsulfonyl)phenyl]-N-(3-fluorophenyl)-1H-pyrazole-4-carboxamide]",0.4,18.4,–,–
2-(Acetyloxy)phenyl 1-(4-fluorophenyl)-3-[4-(methylsulfonyl)phenyl]-1H-pyrazole-4-carboxylate [Compound 293],0.07,> 20,–,–
"CS(=O)(=O)c1ccc(-c2nn(-c3cccc(Cl)c3)cc2C(=O)Nc2ccccc2O)cc1 [Compound 240, N-(2-Hydroxyphenyl)-3-[4-(methylsulfonyl)phenyl]-1-(3-chlorophenyl)-1H-pyrazole-4-carboxamide]",< 0.5,–,14.2,0.036
"CC(=O)Oc1ccccc1OC(=O)c1cn(-c2cccc(Cl)c2)nc1-c1ccc(S(C)(=O)=O)cc1 [Compound 291, 2-(Acetyloxy)phenyl 1-(3-chlorophenyl)-3-[4-(methylsulfonyl)phenyl]-1H-pyrazole-4-carboxylate]",0.042,> 20,–,–
"CNC(=O)c1ccc(-n2cc(C(=O)Nc3cccc(F)c3)c(-c3ccc(S(C)(=O)=O)cc3)n2)cc1 [Compound 285, 1-(4-Methylcarbomylphenyl)-3-[4-(methylsulfonyl)phenyl]-N-(3-fluorophenyl)-1H-pyrazole-4-carboxamide]",0.25,0.81,–,–
"CS(=O)(=O)c1ccc(-c2nn(-c3ccc(C(=O)NO)cc3)cc2C(=O)Nc2cccc(F)c2)cc1 [Compound 284, 1-(4-Hydroxycarbomylphenyl)-3-[4-(methylsulfonyl)phenyl]-N-(3-fluorophenyl)-1H-pyrazole-4-carboxamide]",0.04,1.93,–,–
"O=C(O)c1ccc(-n2cc(C(=O)Nc3ccccc3O)c(-c3ccc(O)cc3)n2)cc1 [Compound 307, 4-{3-(4-Hydroxyphenyl)-4-[(2-hydroxyphenyl)carbamoyl]-1H-pyrazol-1-yl}benzoic acid]",0.25,> 20,–,–
"CS(=O)(=O)c1ccc(-c2nn(-c3ccc(F)cc3)cc2C(=O)Nc2ccccc2O)cc1 [Compound 242, N-(2-Hydroxyphenyl)-3-[4-(methylsulfonyl)phenyl]-1-(4-fluorophenyl)-1H-pyrazole-4-carboxamide]",< 0.5,–,6.32,0.045
"CS(=O)(=O)c1ccc(-c2nn(-c3cccc(F)c3)cc2C(=O)Nc2ccc(OC(F)(F)F)cc2)cc1 [Compound 246, N-(4-Trifluoromethoxyphenyl)-3-[4-(methylsulfonyl)phenyl]-1-(3-fluorophenyl)-1H-pyrazole-4-carboxamide]",–,–,61.2,0.119
"CS(=O)(=O)c1ccc(-c2nn(-c3cccc(C#N)c3)cc2C(=O)Nc2cccc(C(F)(F)F)c2)cc1 [Compound 270, 1-(3-Cyanophenyl)-N-(3-trifluoromethylphenyl)-3-[4-(methylsulfonyl)phenyl]-1H-pyrazole-4-carboxamide]",–,–,91.7,0.346
"CS(=O)(=O)c1ccc(-c2nn(-c3ccccc3)cc2C(=O)Nc2cccnc2)cc1 [Compound 253, 3-[4-(Methylsulfonyl)phenyl]-1-phenyl-N-(pyridin-3-yl)-1H-pyrazole-4-carboxamide]",–,–,10,0.059
"O=C(Nc1cccc(O)c1)c1cn(-c2ccccc2)nc1-c1ccc([N+](=O)[O-])cc1 [Compound 166, N-(3-Hydroxyphenyl)-3-(4-nitrophenyl)-1-phenyl-1H-pyrazole-4-carboxamide]",–,–,95.2,0.779
